The test system of test [1] is rat model of closed head injury. Put plainly: Closed head injury (head trauma) in rats: cerebral edema and Neurological Severity Score. It counts as in vivo. An excerpt: Severe head injury is associated with high mortality and severe neurological impairment. Animals subjected to head trauma in a controlled fashion serve as models in which to test drugs of therapeutic potential. Test compounds can be evaluated both for improved clinical outcome and for reduction of edema induced by closed head injury. The ability of compounds to reduce the severity of neurological symptoms and to reduce brain edema is considered a measure of their potency in reducing brain damage.
The cerebroprotective effect of PRS-211 compounds was assessed in a model of head trauma (HT) in rats. […] The clinical status of the rats was evaluated 1, 24 and 48 hours after injury along with measuring the extent of cerebral edema. The neurological deficit, assessed by a set of criteria termed the Neurological Severity Score (NSS), is maximal at 1 hour after the initiation of head trauma. […]
The model was described in detail by Shapira et al., Crit. […] During the recovery period, the clinical status was evaluated by a set of criteria (NSS).
Trauma induced a significant decrease in specific gravity (SG) of brain tissue and increase in water content following head injury. […] Tissue pieces (20 mg each) were placed on top of the column and the SG calculated from the equilibrium position in the column, using a standard curve. […]

Test [2] concerns cannabimimetic activity. The note with it: doses several thousand times higher than the ED50 of HU-210; cited from earlier work.

Take `CCCCCCC(C)(C)c1cc(O)c2c(c1)OC(C)(C)C1CC=C(Cn3ccnc3)CC21.Cl` (single isomer, unassigned; (+)) [211,095-000, (+)-(3S ,4S )-6,6-Dimethyl-(1,1-dimethylheptyl)-1-hydroxy-9-(imidazolomethyl)-6a,7,10,10a-tetrahydro-6H-dibenzo[b,d]pyran]: the “edema formation and BBB disruption” value in test [1] (given 30 min before, immediately after, or 1 and 2 hours after HT) was “significantly reduces edema formation and BBB disruption”. Also, the “edema and clinical outcome 24 hours after HT” value in test [1] (one dose of 5 mg/kg given 1 hour after the impact) was “effectively reduced edema and improved the clinical outcome”.

In the case of `CCCCCCC(C)(C)c1cc(O)c2c(c1)OC(C)(C)[C@H]1CC=C(CO)CC21` (stereo partly drawn) [211,007-000, 1,1 dimethyl heptyl-(3S,4S)-7-hydroxy-Δ^6-tetrahydrocannabinol], the “cannabimimetic activity (in words)” value in test [2] was “inactive as a cannabimimetic”.

Values taken from US7235584B2, “Non-psychotropic cannabinoids” (Pharmos Corporation, priority 2000, dated 2007).
